Source: patent publication US20050282869A1, “Use of a compound in the treatment of sleep disorders and the like, in providing refreshedness on waking and a method for the treatment of grogginess therewith” (priority 2001, published 2005)

Assays:
[1] = system: patients with temporary sleep disturbance; experiment: Clinical trial: wrist actimetry (SDI, time to sleep onset); assay type: in vivo, human
From the text: (§1) The efficacy of triprolidine in enabling a patient to feel refreshed or alert upon waking after taking triprolidine prior to sleeptime was investigated using patients with a history of sleep disorders and utilising triprolidine prepared in accordance with example 3.
(§2) The study herein utilised the following determination methods:— • (a) Karolinska scale as defined in: Int. J. Neuroscience 52 29-37 (1990); and validation: Sleep 17 (3) 236-41 (1994) • (b) Loughborough Sleep log as defined in: Sleep 17 (2)146-159 (1994); and Sleep 18 (2) 127-134 (1995) • (c) Actimetry—AW4 actimeters (Cambridge Neurotechnology) were worn continuously throughout the study. A button was pressed at night when the subject desired to go to sleep and again in the morning upon waking. The results of the actimeter study were analysed in the manner defined by Home et al (Sleep, 17(2); 146-159).
SDI % was calculated as follows:— [formula]
This is the measure of: • 1. The length of time it took to fall asleep • 2. Any awakenings throughout the sleep period • Expressed as a % of total time spent in bed. Study Objectives • To evaluate the effects of two doses of triprolidine compared with placebo. Study Design
(§3) A multiple-dose, placebo-controlled, parallel-group, double-blind, randomised study investigating the effects of 2.5 mg and 5 mg triprolidine in patients with temporary sleep disturbance.
(§4) Male and Female candidates aged 18 years and above were recruited to one of five research centres by means of local advertising. Candidates were screened by means of a telephone questionnaire and selected candidates invited for interview at the research centre. Key inclusion criteria used to select candidates for the study were: • A record of poor sleep at least 2 nights per week • A record of poor sleep for at least 1 week but not more than 3 months • Sleep disturbance not caused by underlying disease • No excess use of alcohol or drugs • Sleep disturbance affected daytime functioning
(§5) The candidates came to the research centre on Thursday or Friday and were fitted with a wrist actimeter (AW4 from Cambridge Technology) to establish a baseline measure for SDI and were provided with diary cards to record subjective assessments for the Loughborough Sleep Log and the Karolinska Sleepiness Scale. They returned to the investigational site on the Monday and were issued with the study compositions (2.5 mg triprolidine, 5 mg triprolidine or placebo). The investigator telephoned a central randomisation centre where the subject was randomised to a particular treatment group using a dynamic balanced randomisation algorithm. The subject was given three doses of their allocated study medication and instructed to take a single dose of two tablets 20 minutes before they intended to go to sleep on three consecutive evenings, commencing that evening. The diary cards for the Loughborough Sleep Log and Karolinska Sleepiness Scale were asked to be completed on waking.
(§6) 198 candidates completed the study, of whom 178 provided evaluable data. (61 placebo, 60 on 2.5 mg triprolidine and 57 on 5 mg triprolidine. The subjects on 2.5 mg dose took one tablet and placebo those on 5 mg dose took 2×2.5 mg tablets. The subjects on placebo took a dose to match the active treatments (2 tablets).
The study design used 3 groups. On average, the number of individuals in each of the 3 groups (placebo, 2.5 mg triprolidine and 5 mg triprolidine) was 60±10 patients.
In the trial, patients were tested during a seven day period and the results have been analysed for a mean of three days in the middle of this period. The effects of triprolidine at dose level 2.5 mg and 5.0 mg are compared with placebo in table 1.
Generally the treatment groups were well balanced in terms of the demographic data. Unless otherwise mentioned all group data was analysed using ANOVA. […]

[2] = system: patients with temporary sleep disturbance; experiment: Clinical trial: Loughborough sleep log questionnaire; assay type: in vivo, human; conditions: for Loughborough Sleep Log: Awoke Very Refreshed or Refreshed Responses, %: % of patients
From the text: as §1, §2, §3, §4, §5
Candidates were required to complete a questionnaire 15 minutes after awaking on the feeling of refreshedness assessed on a 5-point scale, the Loughborough sleep log.
as §6
Generally the treatment groups were well balanced in terms of the demographic data. Unless otherwise mentioned all group data was analysed using ANOVA. In two cases, namely, how the patient felt 15 minutes after awakening in the Loughborough Sleep Log and the Karolinska Sleepiness Scale at 20 minutes, the two variables were analysed using ANCOVA by including the weekend and the mean of Friday/Saturday/Sunday night as a covariate. The method was a closed test procedure (Williams' test). Each of the tests were to be conducted at the 5% level. The analysis of the secondary endpoints was similarly conducted using the Student's t-tests on parameter estimates taken from the analysis of variance model presented above. […]

[3] = system: patients with temporary sleep disturbance; experiment: Clinical trial: Karolinska 9-point sleepiness scale; assay type: in vivo, human; conditions: for Karolinska 9-point scale (a) I feel extremely alert, very alert or alert, %: scales 1, 2 or 3
From the text: as §1, §2, §3, §4, §5
A daytime sleepiness assessment was also made 20 minutes, 2 hours and 4 hours after awaking on the Karolinska 9-point scale, ie. the sleepiness scale.
as §6
Generally the treatment groups were well balanced in terms of the demographic data. Unless otherwise mentioned all group data was analysed using ANOVA. In two cases, namely, how the patient felt 15 minutes after awakening in the Loughborough Sleep Log and the Karolinska Sleepiness Scale at 20 minutes, the two variables were analysed using ANCOVA by including the weekend and the mean of Friday/Saturday/Sunday night as a covariate. The method was a closed test procedure (Williams' test). Each of the tests were to be conducted at the 5% level. The analysis of the secondary endpoints was similarly conducted using the Student's t-tests on parameter estimates taken from the analysis of variance model presented above.
Karolinska's sleepiness scale is set out below and the results for placebo, 2.5 and 5.0 mg doses of triprolidine are shown in tables 4 and 5. […]

[4] = system: volunteers; conditions: single doses 10 mg or 20 mg sustained release at bedtime; cited from earlier work
[5] = 2.5 mg, mean of the 3 nights, p<0.05
[6] = both treatments (2.5 mg and 5 mg), every treatment night

Structure (SMILES): Cc1ccc(/C(=C\CN2CCCC2)c2ccccn2)cc1 [triprolidine]
- SDI (%) (Sleep latency onset and Quality of sleep) (Actimeter), Mean ([1]; 2.5 mg dose 20 min before sleep, Mon): 11.33%
- SDI (%) (Sleep latency onset and Quality of sleep) (Actimeter), Mean ([1]; 2.5 mg dose, Mean of 3): 11.56%
- TTSO (min) (Time to Sleep onset) (Actimeter), Mean ([1]; 2.5 mg dose, Mean of 3): 15.53 min
- TTSO (min) (Time to Sleep onset) (Actimeter), Mean ([1]; 2.5 mg dose, Mon): 16.22 min
- SDI (%) (Sleep latency onset and Quality of sleep) (Actimeter), Mean ([1]; 2.5 mg dose, Tues): 12.15%
- TTSO (min) (Time to Sleep onset) (Actimeter), Mean ([1]; 2.5 mg dose, Tues): 15.62 min
- SDI (%) (Sleep latency onset and Quality of sleep) (Actimeter), Mean ([1]; 2.5 mg dose, Wed): 11.2%
- SDI compared to placebo ([1]; 2.5 mg, mean of the 3 nights, p<0.01): significantly reduced
- sleep latency onset compared to placebo [1, 5]: reduced
- SDI (%) (Sleep latency onset and Quality of sleep) (Actimeter), Mean ([1]; 5 mg dose, Mean of 3): 12.23%
- TTSO (min) (Time to Sleep onset) (Actimeter), Mean ([1]; 5 mg dose, Mean of 3): 16.93 min
- SDI (%) (Sleep latency onset and Quality of sleep) (Actimeter), Mean ([1]; 5 mg dose, Mon): 11.72%
- TTSO (min) (Time to Sleep onset) (Actimeter), Mean ([1]; 5 mg dose, Mon): 16.16 min
- SDI (%) (Sleep latency onset and Quality of sleep) (Actimeter), Mean ([1]; 5 mg dose, Tues): 12.71%
- TTSO (min) (Time to Sleep onset) (Actimeter), Mean ([1]; 5 mg dose, Tues): 17.88 min
- SDI (%) (Sleep latency onset and Quality of sleep) (Actimeter), Mean ([1]; 5 mg dose, Wed): 11.81%
- TTSO (min) (Time to Sleep onset) (Actimeter), Mean ([1]; 5 mg dose, Wed): 16.36 min
- SDI compared with placebo [1, 6]: reduced
- sleep latency onset compared with placebo [1, 6]: reduced
- no of times woke up (Loughborough sleep log), Mean ([2]; 2.5 mg dose, Mean of 3): 1.22
- time to fall asleep (min) (Loughborough sleep log), Mean ([2]; 2.5 mg dose, Mean of 3): 23.93 min
- no of times woke up (Loughborough sleep log), Mean ([2]; 2.5 mg dose, Mon): 1.18
- time to fall asleep (min) (Loughborough sleep log), Mean ([2]; 2.5 mg dose, Mon): 23.67 min
- Loughborough Sleep Log: Awoke Very Refreshed or Refreshed Responses, % ([2]; 2.5 mg dose, Monday): 23%
- no of times woke up (Loughborough sleep log), Mean ([2]; 2.5 mg dose, Tues): 1.37
- time to fall asleep (min) (Loughborough sleep log), Mean ([2]; 2.5 mg dose, Tues): 24.44 min
- Loughborough Sleep Log: Awoke Very Refreshed or Refreshed Responses, % ([2]; 2.5 mg dose, Tuesday): 23%
- no of times woke up (Loughborough sleep log), Mean ([2]; 2.5 mg dose, Wed): 1.11
- time to fall asleep (min) (Loughborough sleep log), Mean ([2]; 2.5 mg dose, Wed): 20.95 min
- feeling of refreshedness 15 minutes after waking vs placebo (Loughborough sleep log) [2, 5]: more refreshed
- no of times woke up (Loughborough sleep log), Mean ([2]; 5 mg dose, Mean of 3): 1.42
- time to fall asleep (min) (Loughborough sleep log), Mean ([2]; 5 mg dose, Mean of 3): 26.5 min
- no of times woke up (Loughborough sleep log), Mean ([2]; 5 mg dose, Mon): 1.49
- time to fall asleep (min) (Loughborough sleep log), Mean ([2]; 5 mg dose, Mon): 22.02 min
- no of times woke up (Loughborough sleep log), Mean ([2]; 5 mg dose, Tues): 1.42
- time to fall asleep (min) (Loughborough sleep log), Mean ([2]; 5 mg dose, Tues): 32.08 min
- Loughborough Sleep Log: Awoke Very Refreshed or Refreshed Responses, % ([2]; 5 mg dose, Tuesday): 8.2%
- no of times woke up (Loughborough sleep log), Mean ([2]; 5 mg dose, Wed): 1.39
- time to fall asleep (min) (Loughborough sleep log), Mean ([2]; 5 mg dose, Wed): 24.24 min
- Loughborough Sleep Log: Awoke Very Refreshed or Refreshed Responses, % ([2]; 5 mg dose, Wednesday): 14.8%
- individuals with response of sleeping extremely well or very well (morning log of the Loughborough sleep log) ([2]; dose not stated): over 35%
- (b) I feel (i) sleepy, [and need to make] some effort or (ii) very sleepy, a great effort to keep awake, % ([3]; 2.5 mg dose, Wednesday, Karolinska scales 8 and 9, on waking): 6.5%
- Karolinska 9-point scale (a) I feel extremely alert, very alert or alert, % ([3]; 2.5 mg dose, Wednesday, on waking): 21.0%
- percentage of people feeling alert, very alert or extremely alert on waking vs placebo (Karolinska log) ([3]; 2.5 mg, mean of the 3 nights): greater percentage
- percentage of people feeling sleepy or very sleepy on waking vs placebo (Karolinska log) ([3]; 2.5 mg, mean of the 3 nights): lower percentage
- residual hangover effects/morning grogginess ([3]; 2.5 mg, mean of the 3 nights): no evidence of residual hangover effects/morning grogginess
- Karolinska 9-point scale (a) I feel extremely alert, very alert or alert, % ([3]; 5 mg dose, Monday, on waking): 6.3%
- Karolinska 9-point scale (a) I feel extremely alert, very alert or alert, % ([3]; 5 mg dose, Tuesday, on waking): 9.5%
- sleep onset latency compared with placebo [4]: did not significantly alter
- total sleep time compared with placebo [4]: no effect
- wakefulness during sleep compared with placebo [4]: no effect
